Data set [1] can be described thus: Pharmacokinetics in male Sprague Dawley rats after subcutaneous administration. In kind it is in vivo. Conditions: plasma, rat.
Data set [2] can be described thus: Chemical stability in buffer (pH 7.4 / pH 4.5), % purity loss. In kind it is physicochemical. Conditions: 40° C. vs 5° C., 14 or 28 days; for Buffer stability pH 7.4 % purity loss: 100 mM phosphate buffer pH 7.4. A digest of the protocol:
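LC-UV gave % loss after 14 or 28 days of storage at 5 °C or 40 °C. Samples were diluted supernatants from compound incubated 1 h at room temperature at 10 mg/mL target, in 100 mM acetate pH 4.5 or 100 mM phosphate pH 7.4.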

In a further data set the target is T1, human CRF2a receptor (Homo sapiens, UniProt Q13324).
T1 construct: expressed in transfected cells; host or cells: TeloHEAC cells
T1 sequence (Q13324 1-411): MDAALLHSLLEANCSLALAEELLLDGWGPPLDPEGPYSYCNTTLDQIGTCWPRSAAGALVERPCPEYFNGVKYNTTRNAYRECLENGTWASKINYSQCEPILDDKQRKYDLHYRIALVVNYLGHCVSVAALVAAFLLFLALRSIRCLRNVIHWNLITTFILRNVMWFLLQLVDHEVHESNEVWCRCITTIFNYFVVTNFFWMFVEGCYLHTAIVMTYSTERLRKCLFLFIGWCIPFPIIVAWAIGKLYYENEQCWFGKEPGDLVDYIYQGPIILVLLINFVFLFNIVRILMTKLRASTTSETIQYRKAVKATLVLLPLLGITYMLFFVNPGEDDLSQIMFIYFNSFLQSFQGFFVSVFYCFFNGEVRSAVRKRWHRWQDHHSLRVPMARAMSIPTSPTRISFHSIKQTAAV
Description: Activity at human CRF2a receptor, cAMP functional assay in TeloHEAC cells. Type of data set: cell-based. The following applies: TeloHEAC cells stably expressing human CRF2a receptor, relative to urocortin 2 (100 nM = 100%). The essentials: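 cAMP accumulation was measured by HTRF 665/620 nm ratio after 30 min at 37° C compound exposure (16 twofold dilutions) of CRF2a-expressing TeloHEAC cells, 10000/well, in HEPES-buffered HBSS plus IBMX. Activity was normalised to urocortin 2 at 100 nM (100%), and EC50 was the concentration giving half-maximal activation.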

The target in the next data set is T2, CFR1R receptor (Homo sapiens, UniProt P34998).
T2 construct: host or cells: CHO-K1 (clone 2)
T2 sequence (P34998 24-415): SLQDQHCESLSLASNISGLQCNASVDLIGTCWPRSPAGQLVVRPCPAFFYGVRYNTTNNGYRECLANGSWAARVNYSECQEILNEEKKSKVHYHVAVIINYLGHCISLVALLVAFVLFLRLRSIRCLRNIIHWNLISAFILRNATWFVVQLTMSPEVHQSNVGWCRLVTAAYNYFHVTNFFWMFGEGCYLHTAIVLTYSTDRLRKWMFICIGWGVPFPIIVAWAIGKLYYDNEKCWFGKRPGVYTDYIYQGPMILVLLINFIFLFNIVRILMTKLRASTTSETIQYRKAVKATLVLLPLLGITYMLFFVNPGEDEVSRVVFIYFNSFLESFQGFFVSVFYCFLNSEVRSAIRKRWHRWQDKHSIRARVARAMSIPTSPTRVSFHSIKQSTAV
Nature of the data set: Activity at anti-target CFR1R receptor, cAMP assay in CRF1R-overexpression CHO-K1 cells. Type of data set: cell-based. The following applies: 100% = Sauvagine at 100 nM. A digest of the protocol: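 Clone 2; cryopreserved stocks (10% DMSO); 4000 cells/well final; 100% activation = Sauvagine 100 nM; otherwise as TeloHAEC protocol.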

A further data set relates to Sprague Dawley rats. Description: Effect on systolic blood pressure, telemetry in Sprague Dawley rats. Type of data set: in vivo, rat. The following applies: 0.1 mg/kg SC. The essentials: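 Values are % change from a 1 h pre-dose baseline in systolic pressure, tracked by telemetry for up to 48 hours after a single 0.1 mg/kg subcutaneous dose. Rats (Sprague Dawley, n=2 per peptide) carried aortic catheters and recovered at least 10 days post-surgery; duration of action marks the last time point still showing an effect.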

A short description of data set [3]: Pharmacokinetics in male Sprague Dawley rats after subcutaneous administration. In kind it is in vivo. Conditions: plasma, rat, SC, 0.05 mg/kg. Here is the method: The pharmacokinetics of UCN-2 derivatives was studied in male Sprague Dawley rats after subcutaneous administration (SC) at 0.05, 0.1, 0.3 or 1 mg/kg. Peptides were formulated as a solution in 10 mM phosphate pH 7.4 buffer+glycerol 85% (2.3% v/v)). […] The supernatant (200 μL) was analyzed by LC-MSMS. Pharmacokinetic parameters were calculated using established non-compartmental methods. The area under the plasma concentration curve versus time (AUC) was determined using Watson LIMS (version 7.6), with linear trapezoidal interpolation in the ascending slope and logarithmic trapezoidal interpolation in the descending slope. The portion of the AUC from the last measurable concentration to infinity was estimated from the equation, Ct/kel, where Ct represents the last measurable concentration and kel is the elimination rate constant. The latter was determined from the concentration curve versus time by linear regression at the terminal phase of the semi-logarithmic plot.

*1 amine or outer side, *2 acyl side, *3 side chain or, on linkers, in order; H or OH if unused. Where a SMILES comes first, the peptide text is derived from it. Side-chain parts run from the residue outwards. [ ]: non-standard residue; d: D form. The star is where a group is joined. C20 diacid = O=C(O)CCCCCCCCCCCCCCCCCCC(=O)*; C18 diacid = O=C(O)CCCCCCCCCCCCCCCCC(=O)*; γGlu = O=C(O)[C@H](CCC(=O)[*:2])N[*:1]; NMeI = CC[C@H](C)[C@H](NC)C(=O)O; AEEA = NCCOCCOCC(=O)O; Aib = CC(C)(N)C(=O)O Where only a bound is given, the exact number is not on record here.

As usually defined, the AUC(0-t) is exposure summed from dosing to a finite time, without extrapolation to infinity. Read a low AUC(0-t) as low exposure. As usually defined, the half-life is the time in which the quantity being followed falls by half. What is called Cmax is the peak of the concentration-time curve. Usually Tmax stands for the time from dosing to the highest level. The term EC50 denotes the concentration that produces a half-maximal response. Read a low EC50 as higher potency in that assay.

Consider `CC[C@H](C)[C@H](N)C(=O)N[C@H](C(=O)N[C@@H](CC(C)C)C(=O)N[C@@H](CO)C(=O)N[C@@H](CC(C)C)C(=O)N[C@@H](CC(=O)O)C(=O)N[C@H](C(=O)N1CCC[C@H]1C(=O)N[C@H](C(=O)N[C@@H](CCCCN)C(=O)N[C@@H](CC(C)C)C(=O)N[C@@H](CCCCNC(=O)COCCOCCNC(=O)COCCOCCNC(=O)CC[C@H](NC(=O)CCCCCCCCCCCCCCCCC(=O)O)C(=O)O)C(=O)N[C@@H](CCCCN)C(=O)N[C@H](C(=O)N[C@@H](CC(C)C)C(=O)N[C@@H](CC(C)C)C(=O)N[C@@H](CCC(=O)O)C(=O)N[C@@H](CCC(N)=O)C(=O)N[C@@H](CCC(=O)O)C(=O)N[C@@H](CCCCN)C(=O)N[C@@H](CCC(N)=O)C(=O)N[C@@H](CCCCN)C(=O)N[C@@H](CCCCN)C(=O)N[C@@H](CCC(N)=O)C(=O)N[C@@H](CCCNC(=N)N)C(=O)N[C@@H](CCC(=O)O)C(=O)N[C@@H](CCC(N)=O)C(=O)N[C@@H](C)C(=O)N[C@@H](CCC(=O)O)C(=O)N[C@H](C(=O)N[C@@H](CC(N)=O)C(=O)N[C@@H](CCCCN)C(=O)N[C@@H](CCC(N)=O)C(=O)N[C@H](C(=O)N[C@@H](CC(C)C)C(=O)N[C@@H](C)C(=O)N[C@@H](CCC(N)=O)C(=O)N[C@H](C(N)=O)C(C)C)[C@@H](C)CC)[C@@H](C)O)[C@@H](C)CC)[C@@H](C)CC)C(C)C)C(C)C` [149 (Comp Y)] (H-IVLSLDVPIKLK([AEEA-AEEA-γGlu-C18 diacid])KILLEQEKQKKQREQAETNKQILAQV-NH2), for which, in data set [1] (IV, 0.1 mg/kg), the AUC(0-t) turned out to be 2760 ng·h/mL and the half-life was 4.3 h. Further, in data set [1] (SC, 1.0 mg/kg), the AUC(0-t) came out at 14500 ng·h/mL, the concentration peaked (Cmax) at 1040 ng/mL, the Tmax came to 2 h and the half-life was 4 h.

`CC[C@H](C)[C@H](NC)C(=O)N[C@H](C(=O)N[C@@H](CC(C)C)C(=O)N[C@@H](CO)C(=O)N[C@@H](CC(C)C)C(=O)N[C@@H](CC(=O)O)C(=O)N[C@@H](C(=O)N1CCC[C@H]1C(=O)N[C@H](C(=O)N[C@@H](CCCCN)C(=O)N[C@@H](CC(C)C)C(=O)N[C@@H](CCCCNC(=O)COCCOCCNC(=O)COCCOCCNC(=O)CC[C@H](NC(=O)CCCCCCCCCCCCCCCCC(=O)O)C(=O)O)C(=O)N[C@@H](CCCCN)C(=O)N[C@H](C(=O)N[C@@H](CC(C)C)C(=O)N[C@@H](CC(C)C)C(=O)N[C@@H](CCC(=O)O)C(=O)N[C@@H](CCC(N)=O)C(=O)N[C@@H](CCC(=O)O)C(=O)N[C@@H](CCCCN)C(=O)N[C@@H](CCC(N)=O)C(=O)N[C@@H](CCCCN)C(=O)N[C@@H](CCCCN)C(=O)N[C@@H](CCC(N)=O)C(=O)N[C@@H](CCCNC(=N)N)C(=O)N[C@@H](CCC(=O)O)C(=O)N[C@@H](CCC(N)=O)C(=O)N[C@@H](C)C(=O)N[C@@H](CCC(=O)O)C(=O)N[C@H](C(=O)N[C@@H](CC(N)=O)C(=O)N[C@@H](C)C(=O)N[C@@H](CCC(N)=O)C(=O)N[C@H](C(=O)N[C@@H](CC(C)C)C(=O)N[C@@H](C)C(=O)N[C@@H](CCC(N)=O)C(=O)N[C@H](C(N)=O)C(C)C)[C@@H](C)CC)[C@@H](C)O)[C@@H](C)CC)[C@@H](C)CC)C(C)C)C(C)C` [compound 113] (H-[NMeI]VLSLD[dV]PIKLK([AEEA-AEEA-γGlu-C18 diacid])KILLEQEKQKKQREQAETNAQILAQV-NH2): the “Buffer stability pH 4.5 % purity loss” value in data set [2] (100 mM acetate buffer pH 4.5) is on record as 0%. Besides, the “Buffer stability pH 7.4 % purity loss” value in data set [2] is recorded as 14.7%. For the same molecule, the EC50 at human CRF2a receptor was 350 pM; on CFR1R receptor (cAMP), over 250000 pM. Moreover, on CFR1R receptor, the “Emax (% I)” value stood at 6 % I. Further, the “Systolic blood pressure (Mean) % change from baseline, 8 h” value with Sprague Dawley rats (8 h, n=2) is −31%. Further, the “Systolic blood pressure (Mean) % change from baseline, 12 h” value with Sprague Dawley rats (12 h, n=2) is listed as −24%. The “Systolic blood pressure (Mean) % change from baseline, 24 h” value with Sprague Dawley rats (24 h, n=2) was −7%. In the data set with Sprague Dawley rats (last time point with an effect on BP still observed), this molecule showed a Duration of action of over 24 h.

Take `CC[C@H](C)[C@H](NC(C)=O)C(=O)N[C@H](C(=O)N[C@@H](CC(C)C)C(=O)N[C@@H](CO)C(=O)N[C@@H](CC(C)C)C(=O)N[C@@H](CC(=O)O)C(=O)N[C@@H](C(=O)N1CCC[C@H]1C(=O)N[C@H](C(=O)N[C@@H](CCCCN)C(=O)N[C@@H](CC(C)C)C(=O)N[C@@H](CCCCNC(=O)CC[C@H](NC(=O)CCCCCCCCCCCCCCCCCCC(=O)O)C(=O)O)C(=O)N[C@@H](CCCCN)C(=O)N[C@H](C(=O)N[C@@H](CC(C)C)C(=O)N[C@@H](CC(C)C)C(=O)N[C@@H](CCC(=O)O)C(=O)N[C@@H](CCC(N)=O)C(=O)N[C@@H](CCC(=O)O)C(=O)N[C@@H](CCCCN)C(=O)N[C@@H](CCC(N)=O)C(=O)N[C@@H](CCCCN)C(=O)N[C@@H](C)C(=O)N[C@@H](CCC(N)=O)C(=O)N[C@@H](CCCNC(=N)N)C(=O)N[C@@H](CCC(=O)O)C(=O)N[C@@H](CCC(N)=O)C(=O)N[C@@H](C)C(=O)N[C@@H](CCC(=O)O)C(=O)N[C@H](C(=O)N[C@@H](CC(N)=O)C(=O)NC(C)(C)C(=O)N[C@@H](CCC(N)=O)C(=O)N[C@H](C(=O)N[C@@H](CC(C)C)C(=O)N[C@@H](C)C(=O)N[C@@H](CCC(N)=O)C(=O)N[C@H](C(N)=O)C(C)C)[C@@H](C)CC)[C@@H](C)O)[C@@H](C)CC)[C@@H](C)CC)C(C)C)C(C)C` [compound 212] (Ac-IVLSLD[dV]PIKLK([γGlu-C20 diacid])KILLEQEKQKAQREQAETN[Aib]QILAQV-NH2): in data set [2], the “Buffer stability pH 7.4 % purity loss” value is 0.3/Not Tested %. Further, in data set [1] (IV, 0.025 mg/kg), the AUC(0-t) was 4840 ng·h/mL and the half-life was 8 h. Besides, the response at human CRF2a receptor was half-maximal at 110 pM (EC50). For the same molecule, the “Emax (% I)” value at CFR1R receptor came out at 41 % I. In data set [3], the AUC(0-t) is 4680 ng·h/mL, the Cmax is 154 ng/mL, the Tmax was found to be 14 h and the half-life is 8 h.

For the origin of these results see US20260001928A1 (CORTERIA PHARMACEUTICALS, priority 2022, published 2026).
